From patent US11752140B2, “Compositions comprising substituted benzofuroquinolizine and psychoactive drug” (VETCARE OY, priority 2016, dated 2023)

What was measured:
dogs [1] = settings: medetomidine 20 μg/kg IM or 10 μg/kg IV alone (Rolfe 2012); cited from earlier work
dogs [2] = settings: MK-467 250, 500, 750 μg/kg with dexmedetomidine 10 μg/kg IV (Restitutti 2011); cited from earlier work
[3] = Plasma concentrations of butorphanol and midazolam in dogs after IM administration of composition with or without MK-467; settings: for Peak plasma concentration / Time at which peak plasma concentration was reached from the IM administration: IM
Method: Plasma Concentrations of Butorphanol and Midazolam in Dogs after IM Administration of a Composition Comprising MK-467, Butorphanol, Midazolam and Medetomidine, Compared with Composition without MK-467
A liquid aqueous composition comprising MK-467, butorphanol tartrate, midazolam and medetomidine was administered to a dog intramuscularly (IM) to provide a dosage of MK-467 500 μg/kg, butorphanol 100 μg/kg, midazolam 200 μg/kg and medetomidine 20 μg/kg.
Five purpose-bred, adult beagles were used for this study.
Study design: A prospective, randomized, experimental cross-over study.
Each dog was treated for two times with a 14-day wash-out period:
Treatment 1. medetomidine (20 μg/kg)+butorphanol (100 μg/kg)+midazolam (0.2 mg/kg)
Treatment 2. medetomidine (20 μg/kg)+MK-467 (MK) (500 μg/kg)+butorphanol (100 μg/kg)+midazolam (0.2 mg/kg).
For treatment 1. 1 mL of medetomidine (Dorbene 1 mg/mL) was diluted with 1 mL of saline. For treatment 2. 25 mg of MK-467 was mixed with 1 mL of medetomidine, and 1 mL of saline was added. The mixture, butorphanol (Torpudor 10 mg/mL) and midazolam (Midazolam Hameln 5 mg/mL) were aspirated into a single syringe. The end volume of the injectable in both treatments was 0.09 mL/kg.
Dog was positioned laterally and the drugs were injected IM into the epaxial muscle. Central venous blood was sampled into EDTA-tubes at 0, 3, 6, 10, 15, 20, 25, 30, 40, 50, 60 and 90 minutes after drug administration. The plasma concentrations were analyzed with LC/MS/MS for plasma concentrations of dexmedetomidine, midazolam and butorphanol.

[4] = in the presence of MK-467 500 μg/kg, with medetomidine 20 μg/kg, butorphanol 100 μg/kg, midazolam 200 μg/kg in the same syringe
[5] = without MK-467, medetomidine, butorphanol, midazolam in the same syringe
[6] = parenteral extravascular administration, composition with MK-467

Cc1cccc(C(C)c2cnc[nH]2)c1C (racemic) [medetomidine, (RS)-4-[1-(2,3-dimethylphenyl)ethyl]-3H-imidazole]
Heart rate, Pvo(2) and cardiac index compared with baseline (dogs [1]): significantly lower
MAP, SVR and oxygen extraction ratio compared with baseline (dogs [1]): significantly higher

Cc1cccc([C@H](C)c2cnc[nH]2)c1C [Dexmedetomidine, (S)-4-[1-(2,3-Dimethylphenyl)ethyl]-3H-imidazole]
Effect on bispectral index (BIS) values (dogs [2]): decreased BIS-values

Oc1ccc2c(c1)[C@@]13CCCC[C@@]1(O)[C@@H](C2)N(CC1CCC1)CC3 [butorphanol]
Peak plasma concentration [3, 4]: 17 ng/mL
Time at which peak plasma concentration was reached from the IM administration ([3]; with MK-467): ≤ 10 min
Time at which peak plasma concentration was reached from the IM administration ([3]; without MK-467): ≤ 30 min
Peak plasma concentration [3, 5]: 11 ng/mL
Time at which maximum plasma concentration was reached [3, 6]: 10 min
Time at which maximum plasma concentration was reached ([3]; without MK-467): 30 min

Cc1ncc2n1-c1ccc(Cl)cc1C(c1ccccc1F)=NC2 [midazolam]
Peak plasma concentration [3, 4]: 133 ng/mL
Time at which peak plasma concentration was reached from the IM administration ([3]; with MK-467): ≤ 5 min
Time at which peak plasma concentration was reached from the IM administration ([3]; without MK-467): ≤ 30 min
Peak plasma concentration [3, 5]: 71 ng/mL
Time at which maximum plasma concentration was reached [3, 6]: 5 min
Time at which maximum plasma concentration was reached ([3]; without MK-467): 20 min
